Three compounds from patent US20070270418A1, “Inhibitors of P38 and Methods of Using the Same” (priority 2003, published 2007) can be followed below.

The structures appear in SMILES notation.

Common to all, as to experiment: Broad selectivity panel, 32P incorporation
What all share (assay type): biochemical

Assay [1] addresses T1, CDK2/cyclinA (Homo sapiens, UniProt P24941).
T1 construct: purchased Upstate (Charlottesville, Va.)
The settings on record: 40 μM ATP, read-out: Percent inhibition CDK2/cyclinA; for inhibition at 0.1 µM: 0.1 μM compound; for inhibition at 1 µM: 1 μM compound. As for the experimental part: (§1) Various compounds of the present invention are screened against a panel of 24 additional kinases (Upstate, Charlottesville, Va.). Compounds are tested 0.1 μM and 1 μM in reactions containing 40 μM ATP. Incorporation of radiolabeled phosphate (^32P) into each kinase substrate is measured in the presence and absence of test compound. Results are reported as the percent decrease in the amount of ^32P incorporated into the substrate in the presence of compound, compared to buffer control.

Assay [2] has as its target T2, CaMKIV (Homo sapiens, UniProt Q16566).
T2 construct: purchased Upstate (Charlottesville, Va.)
T2 sequence (Q16566 1-473): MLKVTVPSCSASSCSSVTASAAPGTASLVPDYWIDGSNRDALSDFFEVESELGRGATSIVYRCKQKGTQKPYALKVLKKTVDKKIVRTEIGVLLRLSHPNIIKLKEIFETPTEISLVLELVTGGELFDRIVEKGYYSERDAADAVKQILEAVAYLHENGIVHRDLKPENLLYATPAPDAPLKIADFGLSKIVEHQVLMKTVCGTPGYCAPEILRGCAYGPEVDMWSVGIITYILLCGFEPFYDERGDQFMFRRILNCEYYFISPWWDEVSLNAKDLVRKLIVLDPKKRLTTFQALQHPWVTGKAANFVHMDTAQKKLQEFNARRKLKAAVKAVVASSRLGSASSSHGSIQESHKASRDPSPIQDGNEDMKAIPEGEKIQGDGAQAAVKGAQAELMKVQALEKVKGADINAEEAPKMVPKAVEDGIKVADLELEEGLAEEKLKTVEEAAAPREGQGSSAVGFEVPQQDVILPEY
The note with it: 40 μM ATP, read-out: Percent inhibition CaMKIV; for inhibition at 0.1 µM: 0.1 μM compound; for inhibition at 1 µM: 1 μM compound. As for the experimental part:
as §1

Assay [3] concerns the target T3, GSK3β (Homo sapiens, UniProt P49841).
T3 construct: purchased Upstate (Charlottesville, Va.)
The settings on record: 40 μM ATP, read-out: Percent inhibition GSK3β; for inhibition at 0.1 µM: 0.1 μM compound; for inhibition at 1 µM: 1 μM compound. As for the experimental part: as §1

The target of assay [4] is T4, JNK1α1 (Homo sapiens, UniProt P45983).
T4 construct: purchased Upstate (Charlottesville, Va.)
T4 sequence (P45983 1-384 isoform P45983-2, species assumed): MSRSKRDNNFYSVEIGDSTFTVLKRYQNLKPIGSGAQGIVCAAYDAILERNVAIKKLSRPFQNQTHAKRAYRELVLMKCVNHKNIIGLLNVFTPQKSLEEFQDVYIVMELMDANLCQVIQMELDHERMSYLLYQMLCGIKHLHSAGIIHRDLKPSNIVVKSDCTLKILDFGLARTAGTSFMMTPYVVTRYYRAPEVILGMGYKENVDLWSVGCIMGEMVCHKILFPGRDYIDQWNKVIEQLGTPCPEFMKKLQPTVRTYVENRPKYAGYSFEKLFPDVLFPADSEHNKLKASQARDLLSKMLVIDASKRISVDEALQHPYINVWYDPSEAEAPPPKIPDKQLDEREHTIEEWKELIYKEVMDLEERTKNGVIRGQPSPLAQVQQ
The note with it: 40 μM ATP, read-out: Percent inhibition JNK1α1; for inhibition at 0.1 µM: 0.1 μM compound; for inhibition at 1 µM: 1 μM compound. As for the experimental part:
as §1

Assay [5] deals with T5, JNK3-His (Homo sapiens, UniProt P53779).
T5 construct: His; purchased Upstate (Charlottesville, Va.)
T5 sequence (P53779 whole entry): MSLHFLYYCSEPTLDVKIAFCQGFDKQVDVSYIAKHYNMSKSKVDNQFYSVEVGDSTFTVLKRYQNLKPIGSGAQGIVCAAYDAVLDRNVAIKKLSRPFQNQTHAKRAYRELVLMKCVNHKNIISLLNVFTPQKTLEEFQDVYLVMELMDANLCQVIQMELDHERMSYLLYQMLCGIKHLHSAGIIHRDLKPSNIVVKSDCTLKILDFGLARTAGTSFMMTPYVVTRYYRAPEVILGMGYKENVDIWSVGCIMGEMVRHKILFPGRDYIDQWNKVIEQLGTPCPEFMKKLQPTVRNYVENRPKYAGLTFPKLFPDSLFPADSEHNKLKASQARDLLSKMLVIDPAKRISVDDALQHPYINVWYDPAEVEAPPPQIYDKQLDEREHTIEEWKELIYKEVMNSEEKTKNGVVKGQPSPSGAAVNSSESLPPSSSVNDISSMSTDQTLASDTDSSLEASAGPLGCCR
The settings on record: 40 μM ATP, read-out: Percent inhibition JNK3-His; for inhibition at 0.1 µM: 0.1 μM compound; for inhibition at 1 µM: 1 μM compound. As for the experimental part: as §1

The target in assay [6] is T6, Lyn (Homo sapiens, UniProt P07948).
T6 construct: purchased Upstate (Charlottesville, Va.)
T6 sequence (P07948 whole entry, species assumed): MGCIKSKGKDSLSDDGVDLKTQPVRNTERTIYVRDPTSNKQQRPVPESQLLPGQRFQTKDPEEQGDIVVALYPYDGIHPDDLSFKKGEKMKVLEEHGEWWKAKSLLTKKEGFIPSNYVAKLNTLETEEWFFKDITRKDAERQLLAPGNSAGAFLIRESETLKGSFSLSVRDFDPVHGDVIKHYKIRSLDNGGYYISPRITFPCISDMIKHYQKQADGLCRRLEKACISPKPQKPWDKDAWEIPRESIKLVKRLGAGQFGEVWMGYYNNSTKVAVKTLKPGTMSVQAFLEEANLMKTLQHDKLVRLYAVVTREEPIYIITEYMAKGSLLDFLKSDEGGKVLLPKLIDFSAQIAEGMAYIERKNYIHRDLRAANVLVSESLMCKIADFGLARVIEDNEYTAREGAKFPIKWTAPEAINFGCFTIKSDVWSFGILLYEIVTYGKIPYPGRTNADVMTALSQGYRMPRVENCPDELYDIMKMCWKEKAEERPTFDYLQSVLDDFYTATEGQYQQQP
The settings on record: 40 μM ATP, read-out: Percent inhibition Lyn; for inhibition at 0.1 µM: 0.1 μM compound; for inhibition at 1 µM: 1 μM compound. Here is the method:
as §1

The target in assay [7] is T7, MEK1 (Homo sapiens, UniProt Q02750).
T7 construct: purchased Upstate (Charlottesville, Va.)
T7 sequence (Q02750 whole entry, species assumed): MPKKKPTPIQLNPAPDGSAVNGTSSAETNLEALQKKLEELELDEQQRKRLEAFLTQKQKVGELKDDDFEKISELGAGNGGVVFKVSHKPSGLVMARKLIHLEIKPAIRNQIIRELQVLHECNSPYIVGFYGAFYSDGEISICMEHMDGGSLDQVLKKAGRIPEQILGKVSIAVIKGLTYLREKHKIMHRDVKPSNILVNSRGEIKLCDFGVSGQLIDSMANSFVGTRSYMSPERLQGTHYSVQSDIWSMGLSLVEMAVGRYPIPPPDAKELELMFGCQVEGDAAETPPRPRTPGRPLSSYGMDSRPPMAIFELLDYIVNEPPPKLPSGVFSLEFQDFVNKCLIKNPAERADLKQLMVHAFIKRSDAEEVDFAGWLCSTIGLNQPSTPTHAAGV
The settings on record: 40 μM ATP, read-out: Percent inhibition MEK1; for inhibition at 0.1 µM: 0.1 μM compound; for inhibition at 1 µM: 1 μM compound. Here is the method: as §1

The target of assay [8] is T8, MKK6 (Homo sapiens, UniProt P52564).
T8 construct: purchased Upstate (Charlottesville, Va.)
T8 sequence (P52564 1-334): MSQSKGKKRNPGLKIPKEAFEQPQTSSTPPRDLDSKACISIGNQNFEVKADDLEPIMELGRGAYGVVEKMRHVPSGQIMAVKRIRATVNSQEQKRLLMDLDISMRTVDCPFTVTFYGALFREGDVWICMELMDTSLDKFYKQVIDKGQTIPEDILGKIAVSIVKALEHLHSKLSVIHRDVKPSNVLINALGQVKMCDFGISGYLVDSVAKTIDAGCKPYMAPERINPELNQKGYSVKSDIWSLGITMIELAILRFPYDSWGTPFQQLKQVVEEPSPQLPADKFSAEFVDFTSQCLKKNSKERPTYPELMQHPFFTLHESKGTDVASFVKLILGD
The settings on record: 40 μM ATP, read-out: Percent inhibition MKK6; for inhibition at 0.1 µM: 0.1 μM compound; for inhibition at 1 µM: 1 μM compound. As for the experimental part:
as §1

Assay [9] addresses T9, PDGFR α (Homo sapiens, UniProt P16234).
T9 construct: purchased Upstate (Charlottesville, Va.)
The note with it: 40 μM ATP, read-out: Percent inhibition PDGFR α; for inhibition at 0.1 µM: 0.1 μM compound; for inhibition at 1 µM: 1 μM compound. Here is the method:
as §1

Assay [10] addresses T10, PKA (Homo sapiens, UniProt P17612).
T10 construct: purchased Upstate (Charlottesville, Va.)
The note with it: 40 μM ATP, read-out: Percent inhibition PKA; for inhibition at 0.1 µM: 0.1 μM compound; for inhibition at 1 µM: 1 μM compound. Here is the method:
as §1

Assay [11] concerns the target T11, PKB α (Homo sapiens, UniProt P31749).
T11 construct: purchased Upstate (Charlottesville, Va.)
The note with it: 40 μM ATP, read-out: Percent inhibition PKB α; for inhibition at 0.1 µM: 0.1 μM compound; for inhibition at 1 µM: 1 μM compound. Here is the method:
as §1

Assay [12] has as its target T12, ZAP-70 (Homo sapiens, UniProt P43403).
T12 construct: purchased Upstate (Charlottesville, Va.)
T12 sequence (P43403 1-619): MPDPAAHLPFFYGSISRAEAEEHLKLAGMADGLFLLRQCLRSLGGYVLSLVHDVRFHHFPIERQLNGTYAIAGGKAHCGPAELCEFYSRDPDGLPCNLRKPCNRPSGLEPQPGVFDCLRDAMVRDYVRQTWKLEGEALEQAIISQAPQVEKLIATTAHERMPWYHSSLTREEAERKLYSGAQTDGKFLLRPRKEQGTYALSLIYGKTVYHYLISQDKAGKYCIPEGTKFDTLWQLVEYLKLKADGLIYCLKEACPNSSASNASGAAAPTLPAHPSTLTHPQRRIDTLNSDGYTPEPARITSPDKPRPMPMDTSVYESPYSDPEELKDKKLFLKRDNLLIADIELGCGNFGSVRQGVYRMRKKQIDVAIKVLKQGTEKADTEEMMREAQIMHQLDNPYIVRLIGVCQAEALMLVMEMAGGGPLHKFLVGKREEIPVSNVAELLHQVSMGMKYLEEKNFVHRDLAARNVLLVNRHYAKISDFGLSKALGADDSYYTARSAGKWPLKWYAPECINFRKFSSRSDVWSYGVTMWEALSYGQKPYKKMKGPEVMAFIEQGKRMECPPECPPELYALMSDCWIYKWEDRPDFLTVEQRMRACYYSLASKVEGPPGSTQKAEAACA
The note with it: 40 μM ATP, read-out: Percent inhibition ZAP-70; for inhibition at 0.1 µM: 0.1 μM compound; for inhibition at 1 µM: 1 μM compound. Here is the method:
as §1

T3 sequence (P49841 whole entry, species assumed): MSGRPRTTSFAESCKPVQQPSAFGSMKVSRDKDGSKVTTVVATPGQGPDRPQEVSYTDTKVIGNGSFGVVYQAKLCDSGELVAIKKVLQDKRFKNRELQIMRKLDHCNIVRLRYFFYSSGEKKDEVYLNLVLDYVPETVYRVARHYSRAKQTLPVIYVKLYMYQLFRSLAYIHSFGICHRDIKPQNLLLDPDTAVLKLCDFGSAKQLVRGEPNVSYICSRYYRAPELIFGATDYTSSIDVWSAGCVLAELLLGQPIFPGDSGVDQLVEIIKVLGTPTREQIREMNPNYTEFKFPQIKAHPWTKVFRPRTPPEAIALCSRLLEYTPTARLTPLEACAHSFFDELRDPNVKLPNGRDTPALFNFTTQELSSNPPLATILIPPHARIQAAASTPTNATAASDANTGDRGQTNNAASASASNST
T11 sequence (P31749 whole entry, species assumed): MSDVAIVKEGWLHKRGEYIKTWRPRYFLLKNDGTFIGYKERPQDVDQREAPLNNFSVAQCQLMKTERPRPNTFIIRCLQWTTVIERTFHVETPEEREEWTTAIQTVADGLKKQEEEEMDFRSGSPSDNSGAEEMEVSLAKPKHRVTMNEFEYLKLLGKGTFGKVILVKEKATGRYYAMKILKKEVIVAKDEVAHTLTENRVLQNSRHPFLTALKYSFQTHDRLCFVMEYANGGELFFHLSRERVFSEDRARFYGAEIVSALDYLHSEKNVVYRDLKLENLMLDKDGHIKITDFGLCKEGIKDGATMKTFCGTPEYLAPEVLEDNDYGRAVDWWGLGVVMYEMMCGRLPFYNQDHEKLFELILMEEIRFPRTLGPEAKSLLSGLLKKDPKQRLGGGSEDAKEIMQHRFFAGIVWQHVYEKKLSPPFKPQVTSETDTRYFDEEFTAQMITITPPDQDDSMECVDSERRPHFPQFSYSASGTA
T9 sequence (P16234 24-1089, species assumed): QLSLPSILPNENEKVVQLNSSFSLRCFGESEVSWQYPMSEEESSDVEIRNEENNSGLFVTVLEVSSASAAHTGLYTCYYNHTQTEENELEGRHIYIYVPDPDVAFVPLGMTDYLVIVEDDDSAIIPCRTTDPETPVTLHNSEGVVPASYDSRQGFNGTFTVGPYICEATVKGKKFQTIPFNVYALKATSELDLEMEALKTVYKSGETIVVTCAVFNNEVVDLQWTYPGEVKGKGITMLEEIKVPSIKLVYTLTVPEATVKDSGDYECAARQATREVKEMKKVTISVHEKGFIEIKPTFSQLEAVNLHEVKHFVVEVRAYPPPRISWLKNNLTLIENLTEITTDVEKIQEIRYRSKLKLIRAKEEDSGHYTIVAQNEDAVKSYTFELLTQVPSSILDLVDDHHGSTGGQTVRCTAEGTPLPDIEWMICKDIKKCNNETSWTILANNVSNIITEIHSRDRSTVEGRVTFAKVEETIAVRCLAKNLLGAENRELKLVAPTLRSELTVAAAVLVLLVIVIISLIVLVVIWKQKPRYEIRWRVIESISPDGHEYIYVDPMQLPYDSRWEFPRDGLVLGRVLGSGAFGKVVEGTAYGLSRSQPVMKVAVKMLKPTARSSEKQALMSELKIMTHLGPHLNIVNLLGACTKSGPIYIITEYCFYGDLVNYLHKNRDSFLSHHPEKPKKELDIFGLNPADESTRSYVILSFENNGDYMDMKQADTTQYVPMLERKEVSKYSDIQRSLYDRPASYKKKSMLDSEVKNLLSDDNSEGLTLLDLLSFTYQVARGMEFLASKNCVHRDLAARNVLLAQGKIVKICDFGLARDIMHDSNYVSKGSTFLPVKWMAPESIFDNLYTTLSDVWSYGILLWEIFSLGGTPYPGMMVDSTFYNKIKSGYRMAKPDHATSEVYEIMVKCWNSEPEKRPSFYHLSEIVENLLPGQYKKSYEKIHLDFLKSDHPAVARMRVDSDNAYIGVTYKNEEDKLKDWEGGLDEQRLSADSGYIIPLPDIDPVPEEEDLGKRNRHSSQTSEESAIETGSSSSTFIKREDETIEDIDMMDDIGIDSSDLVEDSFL

Turning to `CN(C)CC(C)(C)CNc1nccc(-c2c(-c3ccc(F)cc3)nc3occn23)n1` [CXIX], the inhibition at 0.1 µM is -1% in assay [1]; 13% in assay [2]; 11% in [3]; -1% in assay [4]; 19% in assay [5]; 2% in assay [6]. Also, the inhibition at 0.1 µM in [7] was -1%; in assay [8], 1%; in assay [9], 26%; in assay [10], 1%; in assay [11], 11%; in assay [12] it was 13%. Also, the inhibition at 1 µM in [1] is -1%; in assay [2], 7%; in [3], 13%; in assay [4] it was -18%; in assay [5] it was 56%; in [6] it was -12%. The inhibition at 1 µM in assay [7] is 2%; in assay [8], 75%; in [9] it was 10%; in assay [10] it was -8%; in assay [11] it was 5%; in assay [12], -9%.

`Fc1ccc(-c2nc3occn3c2-c2ccnc(N[C@@H]3CN4CCC3CC4)n2)cc1` [LXXI]: the inhibition at 0.1 µM in assay [1] was 0%; in [2], 5%; in assay [3] it was -8%; in assay [4], -20%; in assay [5], -7%; in [6], 4%. For the same compound, the inhibition at 0.1 µM in assay [7] is 2%; in assay [8], -5%; in assay [9], 10%; in [10], 16%; in [11], -5%; in assay [12], -17%. For the same compound, the inhibition at 1 µM in assay [1] turned out to be 8%; in [2] it was 6%; in assay [3] it was 10%; in assay [4], 3%; in assay [5], 59%; in [6], 10%. For the same compound, the inhibition at 1 µM in assay [7] was found to be 6%; in assay [8], 80%; in assay [9], 9%; in [10], 11%; in [11], 9%; in assay [12], 4%.

Turning to `Fc1ccc(-c2nc3occn3c2-c2ccnc(N[C@H]3CN4CCC3CC4)n2)cc1` [LXXXVII], the inhibition at 0.1 µM in [1] was 1%; in assay [2], -12%; in assay [3], 6%; in [4], -25%; in [5], 19%; in [6] it was -32%. Besides, the inhibition at 0.1 µM in assay [7] was 3%; in [8] it was -4%; in assay [9] it was -6%; in [10] it was -10%; in [11], -2%; in assay [12] it was -51%. Besides, the inhibition at 1 µM in assay [1] was 0%; in [2], 10%; in assay [3], 8%; in [4] it was 0%; in assay [5], 61%; in assay [6], -13%. Besides, the inhibition at 1 µM in assay [7] is -1%; in assay [8] it was 54%; in assay [9], -11%; in assay [10], -6%; in assay [11] it was 5%; in [12], -14%.
